The values below come from patent US7655670B2 (Janssen Pharmaceutica N.V., priority 2005, dated 2010).

Each structure is given as a SMILES string.

For test [1], the target named is Delta (δ) opioid receptor (Homo sapiens, UniProt P41143). Put plainly: Filtration binding assay, delta opioid receptor (DPDPE-H3 ligand). Particulars: 2D4 cell line membrane, DPDPE-H3 ligand; calculated mean where tested more than once; read-out: Delta (δ) IC50.
In a further test the target is Mu (μ) opioid receptor (Homo sapiens, UniProt P35372). Put plainly: Filtration binding assay, mu opioid receptor (Damgo-H3 ligand). The note with it: 1 D4 cell line membrane, Damgo-H3 ligand; calculated mean where tested more than once; read-out: Mu (μ) IC50.
The target of test [2] is Kappa (κ) opioid receptor (Homo sapiens, UniProt P41145). Nature of the test: Filtration binding assay, kappa opioid receptor (U69593-H3 ligand). Particulars: 2C2 cell line membrane, U69593-H3 ligand; calculated mean where tested more than once; read-out: Kappa (κ) IC50.
Another test deals with T1, ORL-1 receptor (Homo sapiens, UniProt P41146).
T1 construct: expressed in transfected cells; host or cells: HEK-293 over-expressing ORL-1 and Gqi5
Put plainly: ORL-1 functional assay (calcium flux, FLIPR). It is filed as cell-based. Details: key to Inhibitor: a notation of “no” indicates that the compound did not act as an inhibitor; a notation of “yes” indicates that the compound acted as an inhibitor; a notation of “undetermined” indicates that the data did not clearly show whether or not the compound acted as an antagonist. How it is done:
To assay the function of a test compound, a HEK-293 cell line that over-expresses the ORL-1 receptor and the Gqi5 G protein (Molecular Devices) were employed. By using a calcium flux assay, agonism and antagonism through the ORL-1 receptor were detectable.
The HEK-293 cells were plated two days prior to assay. For assay, cells in 50 μl of medium were incubated with 50 μl of dye (Molecular Devices) for 1 hour at 37° C. 100 μl of test compound diluted in Hank's Buffered Salt Solution (HBSS) at 2-fold the indicated final concentration was added and time points taken every 1 second for 1 minute and every 3 seconds for an additional 1 minute using FLIPR384 (Molecular Devices). 50 μl of nociceptin (Neosystems, SA) at 5-fold the indicated final concentration was then added and additional time points were recorded every 1 second for 1 minute and every 3 seconds for an additional 1 minute.
The resulting data were processed using Microsoft Excel 6.0 and EC50 values were determined using GraphPad Prism 3.0. For agonists, the EC50 was determined from the initial calcium signal obtained after addition of the test compound. For compounds that behaved as antagonists, the percent inhibition or IC50 of the signal resulting from the subsequent addition of the nociceptin peptide was calculated.
In general terms: Calcium assays in cells follow changes in intracellular calcium, usually with a dye or a luminescent sensor.

For test [3], the target named is human nociceptin receptor (ORL-1) (Homo sapiens, UniProt P41146). Put plainly: nociceptin receptor (ORL-1) binding assay, 125I-Tyr14-nociceptin displacement.
Sequence of human nociceptin receptor (ORL-1) (P41146 whole entry): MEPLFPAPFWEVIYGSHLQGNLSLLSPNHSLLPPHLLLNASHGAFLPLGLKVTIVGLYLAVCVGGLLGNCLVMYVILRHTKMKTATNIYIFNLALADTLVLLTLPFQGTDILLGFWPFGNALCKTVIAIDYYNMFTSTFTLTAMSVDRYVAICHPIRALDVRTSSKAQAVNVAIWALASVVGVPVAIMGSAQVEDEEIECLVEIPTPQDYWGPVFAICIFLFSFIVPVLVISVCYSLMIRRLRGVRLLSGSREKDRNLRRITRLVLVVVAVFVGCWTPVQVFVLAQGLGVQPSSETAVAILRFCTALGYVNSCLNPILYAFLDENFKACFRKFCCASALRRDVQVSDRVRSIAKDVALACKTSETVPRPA

T1 sequence (P41146 whole entry): as above
Sequence of Mu (μ) opioid receptor (P35372 whole entry): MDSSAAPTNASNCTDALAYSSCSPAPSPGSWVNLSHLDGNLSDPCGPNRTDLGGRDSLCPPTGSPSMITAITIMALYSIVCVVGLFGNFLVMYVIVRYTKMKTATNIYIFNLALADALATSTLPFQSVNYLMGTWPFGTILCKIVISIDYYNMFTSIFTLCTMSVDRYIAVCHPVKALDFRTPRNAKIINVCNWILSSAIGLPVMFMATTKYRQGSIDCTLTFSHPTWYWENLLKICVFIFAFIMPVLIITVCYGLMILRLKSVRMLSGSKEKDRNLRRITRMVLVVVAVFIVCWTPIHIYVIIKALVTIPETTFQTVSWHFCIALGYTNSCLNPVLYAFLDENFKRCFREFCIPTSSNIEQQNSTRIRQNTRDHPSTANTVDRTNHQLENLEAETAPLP
Sequence of Delta (δ) opioid receptor (P41143 whole entry): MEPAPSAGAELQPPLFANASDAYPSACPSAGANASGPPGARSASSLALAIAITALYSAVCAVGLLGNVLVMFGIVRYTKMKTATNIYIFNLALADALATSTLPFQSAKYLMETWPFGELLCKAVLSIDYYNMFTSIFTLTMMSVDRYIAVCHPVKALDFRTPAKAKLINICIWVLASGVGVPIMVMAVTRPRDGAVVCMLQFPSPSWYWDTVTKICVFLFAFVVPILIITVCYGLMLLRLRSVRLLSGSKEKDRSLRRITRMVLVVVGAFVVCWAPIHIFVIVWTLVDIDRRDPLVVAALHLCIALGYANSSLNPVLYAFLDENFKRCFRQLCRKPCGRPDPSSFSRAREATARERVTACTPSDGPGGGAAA
Sequence of Kappa (κ) opioid receptor (P41145 whole entry): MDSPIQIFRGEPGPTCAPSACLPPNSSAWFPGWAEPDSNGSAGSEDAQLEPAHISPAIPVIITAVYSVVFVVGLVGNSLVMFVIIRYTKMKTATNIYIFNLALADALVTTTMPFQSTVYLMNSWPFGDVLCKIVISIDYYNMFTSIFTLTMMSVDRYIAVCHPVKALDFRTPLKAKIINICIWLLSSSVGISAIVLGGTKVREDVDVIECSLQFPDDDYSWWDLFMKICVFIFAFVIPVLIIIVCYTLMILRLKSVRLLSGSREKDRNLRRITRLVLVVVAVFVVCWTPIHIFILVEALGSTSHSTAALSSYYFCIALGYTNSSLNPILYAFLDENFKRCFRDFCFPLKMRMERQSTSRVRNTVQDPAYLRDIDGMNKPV

As to `Cc1ccc2c(c1)N(C)C(=O)C21CCN(CC2CCCCCCC2)CC1` [Compound 58, 1-methyl-5-(cyclooctyl-methyl)-10-methyl-spiro[indoline-3,4′-piperidin]-2-one], the IC50 in test [1] was 8.8 µM; at Mu (μ) opioid receptor, 6.47 µM; in test [2], 2380 nM; in test [3] it was 150 nM. Besides, the Inhibitor result at ORL-1 receptor (HEK-293 cells over-expressing ORL-1 receptor and Gqi5 G protein, calcium flux) is recorded as “undetermined”. Further, the “% Inhibition (100 nM Nociceptin)” value at ORL-1 receptor (inhibition of calcium signal from 100 nM nociceptin, HEK-293 cells with ORL-1 and Gqi5) was 48 ± 26%.
